Holding throughout (type): cell-based
Experiment [1] concerns human astrocytes. Put plainly: Glutathione assay in cultured human astrocytes. Particulars: 20-hr exposure, FIG. 2. As to the method:
(§1) Human astrocytes from ScienCell (cat #1820) were grown in astrocyte medium per supplier's instructions. Cells cultured for no more than two passages were plated in 96-well plates at 40,000 cells per well for gene transcription experiments and 20,000 cells per well for glutathione and cytoprotection assays.
Intracellular glutathione was measured after a 20-hr exposure to test compounds by a two-step process. First, cells were lysed and luciferin quantitatively generated from substrate, catalyzed by glutathione-S-transferase in the presence of analyte glutathione. Then luciferin was assayed using stabilized luciferase to produce a luminescent signal proportional to the concentration of glutathione (Promega GSH-Glo, cat #V6912).

Experiment [2] deals with Nrf2 target genes, including GCLC, HMOX1, OSGIN1 and NQO1. Put plainly: Gene expression (RT-PCR) in cultured human astrocytes. Particulars: human astrocytes treated with increasing concentrations for 20 hours. How it is done: as §1
Primary cultures of human spinal cord astrocytes were treated with compound for 20 hours. The cells were then rinsed in PBS, lysed, and processed for RNA using Ambion Taqman™ Cells-to-CT kit. The resulting cDNA was stored at −20° C. until analysis by real-time polymerase chain reaction (RT-PCR). The cDNA mixture from Cells-to-CT was diluted 5× before loading into PCR. This yields results similar to using 6 ng of purified cDNA. RT-PCR was performed on Life Technologies QuantStudio platform using OpenArray technique according to manufacturer's protocol using the following Taqman primers: […]
The comparative CT method was used to calculate fold changes using ThermoFisher Cloud software for PCR analysis. Samples were compared to vehicle control.

The subject of experiment [3] is human astrocytes. Put plainly: Cytoprotection of human astrocytes from sodium arsenite. To be noted: compound 20 hrs before 25 μM sodium arsenite, then 22 hrs, FIG. 3. How it is done: Human astrocytes from ScienCell (cat #1820) were grown in astrocyte medium per supplier's instructions. Cells cultured for no more than two passages were plated in 96-well plates at 40,000 cells per well for gene transcription experiments and 20,000 cells per well for glutathione and cytoprotection assays. Astrocytes were treated for 20 hrs as above, then the medium was removed and replaced with serum- and supplement-free growth medium with and without 25 μM sodium arsenite. After 22 hrs., cells were washed with PBS, fixed with 4% paraformaldehyde/4% sucrose in PBS, stained with 4′,6-Diamidino-2-phenylindole dihydrochloride (DAPI) and counted by quantitative fluorescence microscopy.

Consider `CC1(C)C(=O)C(C#N)=C[C@]2(C)C[C@](O)(c3ccccc3)CC[C@H]12` [Compound 24, (4aS,7S,8aS)-7-hydroxy-4,4,8a-trimethyl-3-oxo-7-phenyl-4a,5,6,8-tetrahydronaphthalene-2-carbonitrile], for which, in experiment [1], the intracellular glutathione result is “increases”. The “transcription of GCLC” value in experiment [2] (FIG. 1A) is recorded as “induces transcription”. In addition, the “transcription of HMOX1” value in experiment [2] (FIG. 1B) is listed as “induces transcription”. Further, the “transcription of OSGIN1” value in experiment [2] (FIG. 1C) is “induces transcription”. In addition, the “transcription of NQO1” value in experiment [2] (FIG. 1D) was “induces transcription”. Further, the “protection from oxidative stress-induced cell death” value in experiment [3] was “protects”.

The record behind these values is patent US11465963B2, “Tetrahydronaphthalene derivatives useful as Nrf2 activators” (BIOGEN MA INC., priority 2017, dated 2022).
